Laboratory results taken from patent US4552882A, “7-(1-Pyrrolyl) derivatives of 1-ethyl-1,4-dihydro-4-oxoquinoline-3-carboxylic acids and 1-ethyl-1,4-dihydro-4-oxo-1,8-naphthyridine-3-carboxylic acids and their use as antimicrobial agents” (Provesan, SA, priority 1983, dated 1985).
Values after ≈ are worked out from the molar mass of the structure shown.

Key:
Assay in all cases: MIC in vitro
Format in all cases: cell-based
[1] = tested on: Enterobacter cloacae CHSP 20; conditions: CHSP20, Dextrose agar, 37° C., 20 hours
Procedure: (§1) (G. L. Daquet and Y. A. Chabbect, Techniques en bacteriologie (Bacteriological techniques), vol. 3, Flammarion Medecine Sciences, Paris, 1972 and W. B. Hugo and A. D. Rusell, Pharmaceutical Microbiology, Blackwell Scientific Publications, London, (1977)). Antibiotic medium no. 1 (seed agar) (Oxoid CM 327) Tryptone-soya broth (Oxoid CM 129) Ringer's physiological solution 1/4 (oxoid BR 52) Dextrose agar (BBL-11165) 0.1 N NaOH "Enterobacter cloacae" CHSP 20 Each of the microorganisms is seeded by streaking in tubes of Antibiotic medium No. 1 (seed agar), which are then incubated at 37° C. for 20 hours. Using a culture loop, the cultures are then seeded in tryptone-soyabroth and incubated at 37° C. for 20 hours. The culture obtained is diluted to 1/4 with Ringer's physiological solution, so as to obtain a standardized suspension of 10^7 -10^9 cfu/ml for each organism. Starting from a solution of 1,000 μg/ml in 0.1 N NaOH, each product is diluted in Dextrose agar (previously melted and maintained at 50° C.), with successive dilutions so as to obtain the following concentrations: 64--32--16--8--4--2--1--0.5--0.25--0.125 μg of derivative/ml medium. For each product, the solution of each concentration is subsequently distributed into Petri dishes 10 cm in diameter, with 10 ml of medium per dish and the same number of dishes as microorganisms to be tested. As soon as the medium has cooled, the dishes are seeded with the inoculations using 0.4 ml of inoculation per dish. They are spread with a Driglasky loop and the supernatant is removed. The seeded dishes are incubated at 37° C. for 20 hours.

Sarcina lutea ATCC 9341 = conditions: Micrococcus luteus, ATCC9341, Dextrose agar, 37° C., 20 hours
Procedure: as §1, with “"Sarcina Lutea" ATCC 9341” for “"Enterobacter cloacae" CHSP 20”

[2] = tested on: Serratia marcescens ATCC 13880; conditions: ATCC13880, Dextrose agar, 37° C., 20 hours
Procedure: as §1, with “"Serratia marcescens" ATCC 13880” for “"Enterobacter cloacae" CHSP 20”

Row | SMILES | MIC [1] [µg/mL] | MIC (Sarcina lutea ATCC 9341) [µg/mL] | MIC [2] [µg/mL]
1 | CCn1cc(C(=O)O)c(=O)c2cc(F)c(-n3cccc3)nc21 [Example 4, 1-ethyl-1,4-dihydro-4-oxo-6-fluoro-7-(1-pyrrolyl)-1,8-naphthyridine-3-carboxylic acid] | 2 (≈ 6.64 µM) | 4 (≈ 13.3 µM) | 2 (≈ 6.64 µM)
2 | CCn1cc(C(=O)O)c(=O)c2ccc(-n3cccc3)cc21 [Example 1, 7-(1-pyrrolyl)-1-ethyl-1,4-dihydro-4-oxo-3-quinolinecarboxylic acid] | 16 (≈ 56.7 µM) | 16 (≈ 56.7 µM) | 8 (≈ 28.3 µM)
3 | CCn1cc(C(=O)O)c(=O)c2cc(F)c(-n3cccc3)cc21 [Example 2, 6-fluoro-7-(1-pyrrolyl)-1-ethyl-1,4-dihydro-4-oxo-3-quinolinecarboxylic acid] | 1 (≈ 3.33 µM) | 16 (≈ 53.3 µM) | 2 (≈ 6.66 µM)
4 | CCn1cc(C(=O)O)c(=O)c2ccc(-n3cccc3)nc21 [Example 3, 1-ethyl-1,4-dihydro-4-oxo-7-(1-pyrrolyl)-1,8-naphthyridine-3-carboxylic acid] | 8 (≈ 28.2 µM) | 8 (≈ 28.2 µM) | 16 (≈ 56.5 µM)
5 | CCn1cc(C(=O)O)c(=O)c2cnc(N3CCNCC3)nc21 [Pipemidic acid, reference compound] | 8 (≈ 26.4 µM) | > 64 | 16 (≈ 52.7 µM)
